# Assay results published in PMC4277623, “Synthesis and Preliminary Evaluation of a New ^99mTc Labeled Substance P Analogue as a Potential Tumor Imaging Agent” (Iranian Journal of Pharmaceutical Research : IJPR, 2015).
# Tests used:
# [1] = Stability in aqueous solution; assay type: physicochemical; settings: reaction mixture at 25 °C up to 24 h; sampled 1, 4, 24 h; RP-HPLC
# Protocol: (§1) The stability of radiolabeled peptide in aqueous solution was evaluated by incubation of the reaction mixture at room temperature (25 °C)up to 24 h.Stability in human serum at 37 °C was tested in parallel after adding 100 μL of reaction mixture to 1ml of fresh human serum. The incubation mixtures were sampled at 1, 4, and 24 h time points. Serum samples (100-200 μL) were treated with ethanol (200-400 μL) and centrifuged (4000 g, 5 min, 4 °C) to precipitate the serum proteins. 20-100 μL aliquots from the supernatant were separated to assess the degradation of ^99mTc labeled peptide by RP-HPLC (method I). 100 μL aliquots from the 25 °C incubated mixture were passed through a […] to eliminate possible ^99mTc colloids and then, 5-20 μL of filtrate were analyzed by RP-HPLC as well.
# Stability in human serum = assay type: in vitro ADME; settings: fresh human serum, 37 °C, up to 24 h; sampled 1, 4, 24 h; ethanol precipitation; RP-HPLC
# Protocol: as §1
# [2] = Protein binding in human serum; assay type: in vitro ADME; settings: fresh human serum, 2 h incubation; ethanol precipitation, centrifugation; γ-counter
# Protocol: For protein binding estimation, freshly labeled peptide solution was filtered through a […] and a 100 μL aliquot of filtrate was incubated in 1ml fresh human serum for 2 h. After ethanol treatment and centrifugation (4000 g, 5 min, 4 °C), all the supernatant was completely removed. A slight wash with 1x phosphate-buffered saline (PBS) was done on the surface of the sediment and the eluate was added to the removed supernatant. The total activity of the supernatant and the activity of the sediment were measured by well-type NaI γ-counter to determine the percentage of radio peptide bound or transferred to albumin and other serum proteins.
# [3] = Log P, octanol/PBS partition; assay type: physicochemical; settings: shake-flask octanol/PBS, vortexed 10 min, γ-counter, three aliquots per layer averaged
# Protocol: In a 2 mL microtube, 0.5 mL of the^99mTc labeled peptides in PBS was mixed with 0.5 mL of octanol. The tube was vigorously vortexed over a period of 10 min and centrifuged at 4000g for 5 min. Three aliquots of 100 μL were sampled from eachlayer and counted in theγ counter. The averaged activities from the aqueous and the octanol layers were used to calculate the log p-values. The octanol-to-water partition coefficient (Po/w) of the radiolabeled peptides was calculated by dividing the counts of the octanol phase by that of the aqueous phase.
# U373MG cells = assay: Internalization and surface binding in U373MG cells; assay type: cell-based, human; settings: for total cell uptake: 37 °C, 2.5 pmol peptide per well, % of total activity per well, triplicates; for receptor specific cell uptake: total minus nonspecific (10000 fold excess unlabeled SP)
# Protocol: All the main cell studies were performed on U373MG human Glioblastoma cell lines. Cells were cultured in DMEM was supplemented with L-glutamine, antibiotics (penicillin, streptomycine, gentamycine) and10% FBS. They were grown in culture until a sufficient number of cells were available. At proper times, cells were detached by trypsin-EDTA (0.25% and 0.02%) from the culture flask and diluted with fresh medium to start a new culture or the cell line tests.
# Internalization of the ^99mTclabeled HYNIC-Tyr^8-Met(O)^11-SP was studied as previously described method([32], [33]) with some modifications. In brief, newly detached U373MG cells were seeded in six-well plates 12 h before the experiment. Their culture medium was replaced by 1.2 mL of previously warmed fresh medium and cells were allowed to adjust to the medium for 1 h at 37 °C, 5% CO2. In order to determine nonspecific internalization, one line of wells per plate was incubated with 10000 fold excess of unlabeled SP (25 nmol peptide in 150 μL PBS per well) at 37°C/5% CO2 for 15 min to block NK1Rs. Then about 150kBq (2.5 pmol peptide) in 150 μL diluted solution of freshly radiolabeled peptide was added to each of the wells and were incubated (in triplicates) for 0.5, 1, 2 and 4 h at 37 °C/5% CO2, respectively. As the final volume of blocked wells was 1.5 mL, the content volume of unblocked wells was adjusted to 1.5 mL by adding 150 μL PBS per well. At each time point, radioactive media were aspirated and wells were washed twice with cold PBS (1x, pH 7.2) to remove free radio peptides. After that, cells were treated with 1 mLGly buffer (0.2M, pH adjusted to 2.8 with 1 M HCl) at room temperature for 5 min (twice) to remove cell-surface bound radio peptide. Finally, the cells were detached from the plates by three steps incubation with 1N NaOH at room temperature for 5 min to determine the internalized radio peptide. All consequent fractions were measured with a NaI γ-counter and results were expressed as percentage of total activity per well (free + cell-surface bound + internalized). Nonspecific accumulations were subtracted from totals to determine the specific accumulations.
structure (smiles),measurement,setting,value
"CC(C)C[C@H](NC(=O)CNC(=O)[C@H](Cc1ccc(O)cc1)NC(=O)[C@H](Cc1ccccc1)NC(=O)[C@H](CCC(N)=O)NC(=O)[C@H](CCC(N)=O)NC(=O)[C@@H]1CCCN1C(=O)[C@H](CCCCN)NC(=O)[C@@H]1CCCN1C(=O)[C@H](CCCNC(=N)N)NC(=O)c1ccc(NN)nc1)C(=O)N[C@@H](CC[S+](C)[O-])C(N)=O (stereo partly drawn) [^99mTc-HYNIC-Tyr^8-Met(O)^11-SP, metal not drawn]",stability in aqueous solution,[1],good stability
same,stability in human serum,Stability in human serum,good stability
same,fraction unbound at 2 h,[2],0.56
same,log P,[3],-3.75
same,total cell uptake,U373MG cells; 0.5 h,2.86 ± 0.10%
same,receptor specific cell uptake,U373MG cells; 0.5 h,1.71%
same,total cell uptake,U373MG cells; 4 h,4.91 ± 0.22%
same,receptor specific cell uptake,U373MG cells; 4 h,2.98%
same,ratio of specific uptake to total uptake,U373MG cells; over 0.5-4 h,60.21 ± 1.19%
